Test results reported in ChEMBL document CHEMBL1156964, “Bioconjugates of curcumin display improved protection against glutathione depletion mediated oxidative stress in a dopaminergic neuronal cell line: Implications for Parkinson's disease” (2010).
Activity calls are given as the source filed them. The rule behind the calls is not given here.

What was measured:
[1] = Neuroprotective effect against rat N27 cells assessed as reduction of BSO-induced increase in reactive oxygen species level at 0.5 uM after 24 hrs by DCFDA fluorescence assay relative to control; assay type: functional; set-up: scale not given: the % may be the effect or the level left
[2] = Neuroprotective effect against rat N27 cells assessed as reduction of BSO-induced increase in hydrogen peroxide level at 0.5 uM after 24 hrs using FOX1 reagent; assay type: functional; set-up: scale not given: the % may be the effect or the level left
[3] = Neuroprotective effect against rat N27 cells assessed as reduction of BSO-induced increase in MDA level at 0.5 uM after 24 hrs by thiobarbituric acid reaction method relative to control; assay type: functional; set-up: scale not given: the % may be the effect or the level left
[4] = Increase in GSH level in rat N27 cells at 0.5 uM after 24 hrs; assay type: functional
N27 [5] = test: Increase in ROS level in rat N27 cells at 0.5 uM by DCFDA fluorescence assay; assay type: functional, cell-based
N27 [6] = test: Neuroprotective effect against rat N27 cells assessed as reduction of BSO-induced reduction of GST activity at 0.5 uM treated 24 hrs after BSO withdrawal relative to control; assay type: functional, cell-based
[7] = Neuroprotective effect in rat N27 cells assessed as Inhibition of BSO-induced GSH depletion at 0.5 uM after 24 hrs by DTNB recycling method relative to control; assay type: functional; conditions: N27, 24 h
N27 [8] = test: Neuroprotective effect against rat N27 cells assessed as reduction of BSO-induced reduction of GST activity at 0.5 uM relative to control; assay type: functional, cell-based
[9] = Neuroprotective effect against rat N27 cells assessed as reduction of BSO-induced increase in MDA level at 0.5 uM by thiobarbituric acid reaction method after 24 hrs BSO withdrawal relative to control; assay type: functional; set-up: scale not given: the % may be the effect or the level left
[10] = Neuroprotective effect against rat N27 cells assessed as reduction of BSO-induced increase in reactive oxygen species level at 0.5 uM treated 24 hrs after BSO withdrawal by DCFDA fluorescence assay relative to control; assay type: functional; set-up: scale not given: the % may be the effect or the level left
[11] = Neuroprotective effect against rat N27 cells assessed as reduction of BSO-induced increase in hydrogen peroxide level at 0.5 uM treated 24 hrs after BSO withdrawal using FOX1 reagent relative to control; assay type: functional; set-up: scale not given: the % may be the effect or the level left

COc1cc(/C=C/C(=O)CC(=O)/C=C/c2ccc(OC(=O)/C=C/C=C/c3ccc(O)c(O)c3)c(OC)c2)ccc1OC(=O)/C=C/C=C/c1ccc(O)c(O)c1
Activity [1]: 65% | Activity [2]: 50% | Activity [3]: 50% | Activity [4]: 25% | Activity (N27 [5]): inactive | Activity (N27 [6]): Active | inhibition at 0.5 µM [7]: 78% | Activity (N27 [8]): Active | Activity [9]: 75% | Activity [10]: 55%

COc1cc(/C=C/C(=O)CC(=O)/C=C/c2ccc(OC(=O)[C@@H](N)C(C)C)c(OC)c2)ccc1OC(=O)[C@@H](N)C(C)C
Activity [1]: 60% | Activity [3]: 30% | Activity [4]: 50% | Activity (N27 [5]): inactive | Activity (N27 [6]): Active | inhibition at 0.5 µM [7]: 72% | Activity (N27 [8]): Active | Activity [9]: 80% | Activity [10]: 70% | Activity [11]: 80%

COc1cc(/C=C/C(=O)CC(=O)/C=C/c2ccc(O)c(OC)c2)ccc1O [CURCUMIN]
Activity [1]: 45% | Activity [2]: 50% | Activity [3]: 40% | Activity [4]: 30% | Activity (N27 [5]): inactive | Activity (N27 [6]): Active | inhibition at 0.5 µM [7]: 78% | Activity (N27 [8]): Active | Activity [9]: 65% | Activity [10]: 50%

COc1cc(/C=C/C(=O)CC(=O)/C=C/c2ccc(OC(=O)[C@@H](N)CCC(=O)O)c(OC)c2)ccc1OC(=O)[C@@H](N)CCC(=O)O
Activity [1]: 90% | Activity [2]: 50% | Activity [3]: 50% | Activity [4]: 64% | Activity (N27 [5]): inactive | Activity (N27 [6]): Active | inhibition at 0.5 µM [7]: 83% | Activity (N27 [8]): Active | Activity [9]: 90% | Activity [10]: 80%
